# Reference: US20140329858A1, “Cyclic Urea Derivatives As Androgen Receptor Antagonists” (priority 2011, published 2014)
# System: Vcap cells
# Test: Dihydrotestosterone (DHT) mediated XTT cell proliferation assay for screening AR antagonists using Vcap cells
# Type: cell-based
# Settings: Homo sapiens, 240 h, in the presence of 0.2 nM DHT, XTT readout on Day 10, IC50 curves from 8 concentrations
# Procedure: Dihydrotestosterone (DHT) Mediated XTT Cell Proliferation Assay for Screening AR Antagonists Using Vcap cells
# The Vcap cells (4×10^6 cells) were seeded in a T-75 flask containing DMEM with 15% FBS. After 72 hours, the media was removed; the cells were washed once and replaced with phenol red free DMEM containing 8% charcoal stripped serum. Then, the cells were starved in phenol red free DMEM with 8% charcoal stripped serum for 5 days. Following the starvation, the cells were harvested and seeded in 96 well plates (10×10^3 cells per well) in phenol red free DMEM with 8% charcoal stripped serum (Day 0). The cells were allowed to settle and on Day 4 they were treated with different concentrations of the compound (30 μM, 10 μM, 1 μM, 500 nM, 100 nM, 10 nM, 1 nM, 0.1 nM) in the presence of 0.2 nM DHT. DHT alone and a DMSO controls were also included. All treatments were done in triplicate. The drugs were replenished on Day 7 and the cells were allowed to grow for another 72 hours. On Day 10, the experiment was terminated by adding the XTT reagent (2,3-bis[2-methoxy-4-notro-5-sulfophenyl]-2H-tetrazolium-5-caboxyanilide inner salt) dissolved in Phenol red free DMEM without serum. The cells with the XTT reagents were incubated inside the CO2 incubator for 3-4 hours for color development; after which the readings were taken at […] using a spectramax Gemini plate reader.
# Data fitting: The IC50 curves for the 8 compound concentrations were calculated with GraphPad Prism software using the sigmoidal dose-response function. (Graphpad Software, San Diego, Calif., USA).
row,SMILES,IC50 [nM]
1,"N#Cc1ccc(N2C(=O)N(c3ccc(C(=O)NCCO)c(F)c3)[C@H]3CCCC[C@@H]32)cc1C(F)(F)F [Example 33, 4-((3aS,7aS)-3-(4-cyano-3-(trifluoromethyl)phenyl)-2-oxooctahydro-1H-benzo[d]imidazol-1-yl)-2-fluoro-N-(2-hydroxyethyl)benzamide]",43.6
2,"N#Cc1ccc(N2C(=O)N(c3ccc(C(N)=O)c(F)c3)[C@@H]3CCOC[C@H]32)cc1C(F)(F)F (racemic) [Example 76, Trans-4-(3-(4-cyano-3-(trifluoromethyl)phenyl)-2-oxohexahydropyrano[3,4-d]imidazol-1(6H)-yl)-2-fluorobenzamide (±)]",2540
3,"Cc1ccncc1N1C(=O)N(c2ccc(C#N)c(C(F)(F)F)c2)[C@H]2CCCC[C@@H]21 [Example 63, 4-((3aS,7aS)-3-(4-methylpyridin-3-yl)-2-oxooctahydro-1H-benzo[d]imidazol-1-yl)-2-(trifluoromethyl)benzonitrile]",2290
4,"Cc1c(N2C(=O)N(c3ccc(C#N)c(C(F)(F)F)c3)[C@H]3CCCC[C@@H]32)ccc(C#N)c1Cl (racemic) [Example 42, Trans-2-chloro-4-(3-(4-cyano-3-(trifluoromethyl)phenyl)-2-oxooctahydro-1H-benzo[d]imidazol-1-yl)-3-methylbenzonitrile (±)]",168
5,"N#Cc1ccc(N2C(=O)N(c3ccc(C(=O)NCCO)c(F)c3)[C@@H]3CCCC[C@H]32)cc1C(F)(F)F (racemic) [Example 32, Trans 4-(3-(4-cyano-3-(trifluoromethyl)phenyl)-2-oxooctahydro-1H-benzo[d]im-idazol-1-yl)-2-fluoro-N-(2-hydroxyethyl)benzamide (±)]",377
6,"N#Cc1ccc(N2C(=O)N(c3ccnc(C(N)=O)c3)[C@H]3CCCC[C@@H]32)cc1C(F)(F)F [Example 57, 4-((3aS,7aS)-3-(4-cyano-3-(trifluoromethyl)phenyl)-2-oxooctahydro-1H-benzo[d]imidazol-1-yl)picolinamide]",265
7,"N#Cc1ccc(N2C(=O)N(c3ccc(S(N)(=O)=O)c(F)c3)[C@@H]3CCCC[C@H]32)cc1C(F)(F)F (racemic) [Example 67, Trans-4-(3-(4-cyano-3-(trifluoromethyl)phenyl)-2-oxooctahydro-1H-benzo[d]imidazol-1-yl)-2-fluorobenzenesulfonamide (±)]",1090
8,"CNC(=O)c1ccc(N2C(=O)N(c3ccc(C#N)c(C(F)(F)F)c3)[C@@H]3CCCCC[C@H]32)cc1F (racemic) [Example 80, Trans-4-(3-(4-cyano-3-(trifluoromethyl)phenyl)-2-oxooctahydrocyclohepta[d]imidazol-1(2H)-yl)-2-fluoro-N-methylbenzamide (±)]",254
9,"CN1CCC(ONC(=O)c2ccc(N3C(=O)N(c4ccc(C#N)c(C(F)(F)F)c4)[C@@H]4CCCC[C@H]43)cc2F)CC1 (racemic) [Example 28, Trans 4-(3-(4-cyano-3-(trifluoromethyl)phenyl)-2-oxooctahydro-1H-benzo[c]im-idazol-1-yl)-2-fluoro-N-((1-methylpiperidin-4-yl)oxy)benzamide (±)]",148
10,"Cc1n[nH]cc1N1C(=O)N(c2ccc(C#N)c(C(F)(F)F)c2)[C@@H]2CCCC[C@H]21 (racemic) [Example 52, trans-4-(3-(3-methyl-1H-pyrazol-4-yl)-2-oxooctahydro-1H-benzo[d]imidazol-1-yl)-2-(trifluoromethyl)benzonitrile (±)]",> 10000
11,"CC(=O)c1ccc(N2C(=O)N(c3ccc(C#N)c(C(F)(F)F)c3)[C@H]3CCCC[C@@H]32)cc1F [Example 45, 4-((3aS,7aS)-3-(4-acetyl-3-fluorophenyl)-2-oxooctahydro-1H-benzo[d]imidazol-1-yl)-2-(trifluoromethyl)benzonitrile]",1020
12,"CNC(=O)c1ccc(N2C(=O)N(c3ccc(C#N)c(C(F)(F)F)c3)[C@@H]3CCCC[C@H]32)cc1C (racemic) [Example 39, Trans-4-(3-(4-cyano-3-(trifluoromethyl)phenyl)-2-oxooctahydro-1H-benzo[d]im-idazol-1-yl)-N,2-dimethylbenzamide (±)]",399
13,"CNC(=O)c1ccc(N2C(=O)N(c3ccc(C#N)c(C(F)(F)F)c3)[C@@H]3CCC(O)C[C@H]32)cc1F (mixture of isomers) [Example 82, Trans-4-(3-(4-cyano-3-(trifluoromethyl)phenyl)-6-hydroxy-2-oxooctahydro-1H-benzo[d]imidazol-1-yl)-2-fluoro-N-methylbenzamide (±)]",583
14,"N#Cc1ccc(N2C(=O)N(c3ccc(C(N)=O)c(F)c3)[C@H]3CCCC[C@@H]32)cc1C(F)(F)F [Example 31, 4-((3aS,7aS)-3-(4-cyano-3-(trifluoromethyl)phenyl)-2-oxooctahydro-1H-benzo[d]imidazol-1-yl)-2-fluorobenzamide]",37.2
15,"N#Cc1ccc(N2C(=O)N(c3ccoc3)[C@@H]3CCCC[C@H]32)cc1C(F)(F)F (racemic) [Example 3, Trans-4-(3-(furan-3-yl)-2-oxoocta-hydro-1H-benzo[d]imidazol-1-yl)-2-trifluoromethyl)benzonitrile (±)]",1520
16,N#Cc1ccc(N2C(=O)N(c3ccc(C(=O)N[C@@H]4CCOC4)c(F)c3)[C@H]3CCCC[C@@H]32)cc1C(F)(F)F [Example 36],203
17,"CS(=O)(=O)Nc1ccc(N2C(=O)N(c3ccc(C#N)c(C(F)(F)F)c3)[C@@H]3CCCC[C@H]32)cc1F (racemic) [Example 16, Trans-N-(4-(3-(4-cyano-3-(trifluoromethyl)phenyl)-2-oxooctahydro-1H-benzo[d]imidazol-1-yl)-2-fluorophenyl)methanesulfonamide (±)]",2450
18,"N#Cc1ccc(N2C(=O)N(c3cnccc3C3CC3)[C@H]3CCCC[C@@H]32)cc1C(F)(F)F [Example 62, 4-((3aS,7aS)-3-(4-cyclopropylpyridin-3-yl)-2-oxooctahydro-1H-benzo[d]imidazol-1-yl)-2-(trifluoromethyl)benzonitrile]",2160
19,"N#Cc1ccc(N2C(=O)N(c3ccnc(F)c3)[C@@H]3CCCC[C@H]32)cc1C(F)(F)F (racemic) [Example 10, Trans-4-(3-(2-fluoropyridin-4-yl)-2-oxooctahydro-1H-benzo[d]imidazol-1-yl)-2-(trifluoromethyl)benzonitrile (±)]",365
20,"CCN(CC)CCONC(=O)c1ccc(N2C(=O)N(c3ccc(C#N)c(C(F)(F)F)c3)[C@@H]3CCCC[C@H]32)cc1F (racemic) [Example 26, Trans-4-(3-(4-cyano-3-(trifluoromethyl)phenyl)-2-oxooctahydro-1H-benzo[d]im-idazol-1-yl)-N-(2-(diethylamino)ethoxy)-2-fluorobenzamide (±)]",75.5
21,"N#Cc1ccc(N2C(=O)N(c3ccc(C(N)=O)nc3)[C@H]3CCCC[C@@H]32)cc1C(F)(F)F [Example 55, 5-((3aS,7aS)-3-(4-cyano-3-(trifluoromethyl)phenyl)-2-oxooctahydro-1H-benzo[d]imidazol-1-yl)picolinamide]",174
22,"N#Cc1ccc(N2C(=O)N(c3ccc(C#N)c(C(F)(F)F)c3)[C@@H]3CCCC[C@H]32)cc1C(F)(F)F (racemic) [Example 2, Trans-4,4′-(2-oxohexahydro-1H-benzo[d]imidazole-1,3(2H)-diyl)bis(2-(trifluoromethyl)benzonitrile) (±)]",240

# Same assay, conditions: in the presence of 0.2 nM DHT, XTT readout on Day 10, IC50 curves from 8 concentrations
row,SMILES,IC50 [nM]
1,"N#Cc1ccc(N2C(=O)N(c3ccc(C#N)c(C(F)(F)F)c3)[C@@H]3CCCC[C@H]32)cc1C(F)(F)F (relative stereo) [Example 2b, Trans-4,4′-(2-oxohexahydro-1H-benzo[d]imidazole-1,3(2H)-diyl)bis(2-(trifluoromethyl)benzonitrile) (+)]",> 10000
2,CNC(=O)c1ccc(N2C(=O)N(c3ccc(C#N)c(C(F)(F)F)c3)[C@@H]3CC=CC[C@H]32)cc1F (relative stereo) [Example 83a],> 10000
3,"CNC(=O)c1ccc(N2C(=O)N(c3ccc(C#N)c(C(F)(F)F)c3)[C@@H]3CCCCC[C@H]32)cc1F (relative stereo) [Example 80a, Trans-4-(3-(4-cyano-3-(trifluoromethyl)phenyl)-2-oxooctahydrocyclohepta[d]imidazol-1(2H)-yl)-2-fluoro-N-methylbenzamide (−)]",93.7
4,"CNC(=O)c1ccc(N2C(=O)N(c3ccc(C#N)c(C(F)(F)F)c3)C3CCC(O)CC32)cc1F (single isomer, unassigned) [Example 82b, Trans-4-(3-(4-cyano-3-(trifluoromethyl)phenyl)-6-hydroxy-2-oxooctahydro-1H-benzo[d]imidazol-1-yl)-2-fluoro-N-methylbenzamide (−)]",312
5,"CC(COC(C)(C)C)ONC(=O)c1ccc(N2C(=O)N(c3ccc(C#N)c(C(F)(F)F)c3)[C@@H]3CCCC[C@H]32)cc1F (mixture of isomers) [Example 23, Trans-N-((1-(tert-butoxy)propan-2-yl)oxy)-4-(3-(4-cyano-3-(trifluoromethyl)phenyl)-2-oxooctahydro-1H-benzo[d]imidazol-1-yl)-2-fluorobenzamide (±)]",> 10000
